According to patent US8030354B2, “Substituted biphenyl GPR40 modulators” (Amgen Inc., priority 2007, dated 2011):

Assays:
GPR40 [1] = molecular target: T1, GPR40 (Homo sapiens, UniProt O14842); assay: Cell-based aequorin assay (CHO cells stably expressing GPR40 and aequorin); set-up: expressed in transfected cells; host or cells: CHO cells stably transfected with GPR40 and aequorin; conditions: activation of human GPR40, CHO cells, 0.01% HSA
Summary of the method: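 CHO cells stably co-expressing GPR40 and aequorin, loaded with coelenterazine (1 ug/mL, 2 h, room temperature) in H/HBSS with 20 mM Hepes and 0.01% fatty acid-free HSA. Serially diluted compounds added; luminescence recorded over 20 s. EC50 from dose-response of maximum relative light units.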

GPR40 [2] = molecular target: T1, GPR40; assay: Inositol phosphate accumulation assay (A9_GPR40 cells); format: cell-based; set-up: expressed in transfected cells; host or cells: CHO cells stably transfected with GPR40 and aequorin; conditions: inositol phosphate assay, A9_GPR40 cells, 1 hour; read-out: IP3 EC50
Protocol: Briefly, the Aequorin assays were performed on doubly stable CHO cells expressing GPR40 and Aequorin DNA. […] The luminescence was recorded over a period of 20 seconds with a Microlumat luminometer (Berthold). […] The inositol phosphate assay was performed on an A9 cell line stably transfected with GPR40 (A9_GPR40). The cells were incubated with different concentrations of compounds and [^3H] inositol accumulation was measured after 1 hour.
An A9 cell line stably transfected with GPR40 (A9_GPR40) was used in IP accumulation assays. A9_GPR40 cells were plated in 96-well plates containing 20,000 cells/well in DMEM containing 10% FBS. After the cells attached to the well surface, the media was replaced with inositol free DMEM containing 10% dialyzed FBS and 1 μCi, mL ^3H-inositol and incubated for 16 hours. Compounds were diluted in HBSS/10 mM LiCl containing a desired amount of HSA and added directly to cells. Following 1 hour incubation at 37° C., the media was replaced with 100 μL of 20 mM formic acid to quench the reaction. 50 μL of the extract was then added to 100 μL of SPA beads, incubated overnight, and measured on a TopCount the following day.

T1 sequence (O14842 whole entry): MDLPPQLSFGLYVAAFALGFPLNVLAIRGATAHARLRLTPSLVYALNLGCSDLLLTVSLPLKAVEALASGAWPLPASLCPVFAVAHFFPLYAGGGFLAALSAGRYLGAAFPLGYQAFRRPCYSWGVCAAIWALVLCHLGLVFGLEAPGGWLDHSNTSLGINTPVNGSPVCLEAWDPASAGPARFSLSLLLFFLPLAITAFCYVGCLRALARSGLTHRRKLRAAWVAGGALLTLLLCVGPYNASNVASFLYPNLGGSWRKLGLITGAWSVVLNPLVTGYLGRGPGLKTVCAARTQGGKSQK

Row | Compound | EC50 (GPR40 [1]) [nM] | EC50 (GPR40 [2]) [nM]
1 | COc1ccc(F)c(-c2ccc(COc3cccc([C@@H](CC(=O)O)C4CCC4)c3)cc2[C@@H]2CCCC2(C)C)c1 (single isomer, unassigned) [Example 79.4] | 10 to 100 | < 10
2 | COc1cccc(-c2ccc(COc3cccc(C(C)CC(=O)O)c3)cc2C2=CCCC2(C)C)c1 (single isomer, unassigned) [Example 64.20, (3R)-3-(3-(((2-(5,5-Dimethyl-1-cyclopenten-1-yl)-3′-(methyloxy)-1,1′-biphenyl-4-yl)methyl)oxy)phenyl)butanoic acid or (3S)-3-(3-(((2-(5,5-dimethyl-1-cyclopenten-1-yl)-3′-(methyloxy)-1,1′-biphenyl-4-yl)methyl)oxy)phenyl)butanoic acid] | 100 to 1000 | 10 to 100
3 | CCC(CC(=O)O)c1cc(F)cc(OCc2ccc(-c3cc(OC)ncc3F)c(C3CCCC3(C)C)c2)c1F (single isomer, unassigned) [Example 90.3] | 100 to 1000 | < 10
4 | CC[C@H](CC(=O)O)c1cccc(OCc2ccc(-c3cc(OC)ccc3F)c([C@H]3CCCC3(C)C)c2)c1 (single isomer, unassigned) [Example 78.4] | 10 to 100 | < 10
5 | CCOc1cccc(-c2ccc(COc3cccc(CCC(=O)O)c3)cc2C(C)(C)C)c1 [Example 41, 3-(3-(((2-(1,1-Dimethylethyl)-3′-(ethyloxy)-1,1′-biphenyl-4-yl)methyl)oxy)phenyl)propanoic acid] | 1000 to 10000 | 
6 | CC[C@H](CC(=O)O)c1cccc(OCc2ccc(-c3cccc(OC)c3)c([C@@H]3CCCC3(C)C)c2)c1 (single isomer, unassigned) [Example 78.5] | 100 to 1000 | 
7 | CCCC(CC(=O)O)c1cccc(OCc2ccc(-c3cccc(OC)c3)c(C3CCCC3(C)C)c2)c1 (single isomer, unassigned) [Example 80.5] | 100 to 1000 | 
8 | CC1(C)CCCC=C1c1cc(COc2cccc(C(CC(=O)O)C3CC3)c2)ccc1-c1cc(=O)[nH]cc1F (single isomer, unassigned) [Example 66.35, (3S)-3-Cyclopropyl-3-(3-(((3-(6,6-dimethyl-1-cyclohexen-1-yl)-4-(5-fluoro-2-oxo-1,2-dihydro-4-pyridinyl)phenyl)methyl)oxy)phenyl)propanoic acid or (3R)-3-cyclopropyl-3-(3-(((3-(6,6-dimethyl-1-cyclohexen-1-yl)-4-(5-fluoro-2-oxo-1,2-dihydro-4-pyridinyl)phenyl)methyl)oxy)phenyl)propanoic acid] | 1000 to 10000 | 

Second part, the compound after the results:

Row | EC50 (GPR40 [1]) [nM] | EC50 (GPR40 [2]) [nM] | Compound
9 | 100 to 1000 | 100 to 1000 | COc1ccc(F)c(-c2ccc(COc3cccc([C@@H](CC(=O)O)CC4CC4)c3)cc2C(O)C(C)(C)C)c1 (single isomer, unassigned) [Example 69.14, (3R)-4-Cyclopropyl-3-(3-(((2′-fluoro-2-(1-hydroxy-2,2-dimethylpropyl)-5′-(methyloxy)-1,1′-biphenyl-4-yl)methyl)oxy)phenyl)butanoic acid or (3S)-4-cyclopropyl-3-(3-(((2′-fluoro-2-(1-hydroxy-2,2-dimethylpropyl)-5′-(methyloxy)-1,1′-biphenyl-4-yl)methyl)oxy)phenyl)butanoic acid]
10 | 100 to 1000 | < 10 | COc1ccc(F)c(-c2ccc(COc3cccc(C(CC(=O)O)C4CC4)c3F)cc2C(OC)C(C)(C)C)c1 (single isomer, unassigned) [Example 83.8]
11 | 10 to 100 | < 10 | CCC(CC(=O)O)c1cccc(OCc2ccc(-c3cc(OC)ccc3F)c(C(OC)C(C)(C)CC)c2)c1 (single isomer, unassigned) [Example 78.14]
12 | 100 to 1000 | 100 to 1000 | CCC(CC(=O)O)c1ccc(F)c(OCc2ccc(-c3cc(OC)ccc3F)c(C3=CCCC3(C)C)c2)c1 (single isomer, unassigned) [Example 86.1, (3R)-3-(3-(((2-(5,5-Dimethyl-1-cyclopenten-1-yl)-2′-fluoro-5′-(methyloxy)-1,1′-biphenyl-4-yl)methyl)oxy)-4-fluorophenyl)pentanoic acid or (3S)-3-(3-(((2-(5,5-dimethyl-1-cyclopenten-1-yl)-2′-fluoro-5′-(methyloxy)-1,1′-biphenyl-4-yl)methyl)oxy)-4-fluorophenyl)pentanoic acid]
13 | 100 to 1000 | 10 to 100 | COc1ccc(F)c(-c2c(F)cc(COc3cccc([C@@H](CC(=O)O)C4CC4)c3)cc2C2=CCCC2(C)C)c1 (single isomer, unassigned) [Example 66.49, (3S)-3-Cyclopropyl-3-(3-(((2-(5,5-dimethyl-1-cyclopenten-1-yl)-2′,6-difluoro-5′-(methyloxy)-1,1′-biphenyl-4-yl)methyl)oxy)phenyl)propanoic acid or (3R)-3-cyclopropyl-3-(3-(((2-(5,5-dimethyl-1-cyclopenten-1-yl)-2′,6-difluoro-5′-(methyloxy)-1,1′-biphenyl-4-yl)methyl)oxy)phenyl)propanoic acid]
14 | 1000 to 10000 |  | CCCCOc1cc(COc2cccc([C@@H](CC(=O)O)C(C)C)c2)ccc1-c1cc(OC)ccc1F (single isomer, unassigned) [Example 53]
15 | 100 to 1000 |  | C=CC(C)(C)C(O)c1cc(COc2cccc(C(CC(=O)O)C3CC3)c2)ccc1-c1cc(OC)ccc1F (single isomer, unassigned) [Example 66.61]
16 | 1000 to 10000 |  | COc1ccc(F)c(-c2ccc(COc3cccc(C(CC(=O)O)C4CC4)c3F)cc2C2=CCCC2(C)C)c1 (single isomer, unassigned) [Example 99.1, (3R)-3-Cyclopropyl-3-(3-(((2-(5,5-dimethyl-1-cyclopenten-1-yl)-2′-fluoro-5′-(methyloxy)-1,1′-biphenyl-4-yl)methyl)oxy)-2-fluorophenyl)propanoic acid or (3S)-3-cyclopropyl-3-(3-(((2-(5,5-dimethyl-1-cyclopenten-1-yl)-2′-fluoro-5′-(methyloxy)-1,1′-biphenyl-4-yl)methyl)oxy)-2-fluorophenyl)propanoic acid]
17 | 100 to 1000 |  | COc1ccc(F)c(-c2ccc(COc3cccc(CC(C)C(=O)O)c3)cc2C2CCCC2(C)C)c1 (single isomer, unassigned) [Example 63.2, (2S)-3-(3-(((2-(2,2-Dimethylcyclopentyl)-2′-fluoro-5′-(methyloxy)-1,1′-biphenyl-4-yl)methyl)oxy)phenyl)-2-methylpropanoic acid or (2R)-3-(3-(((2-(2,2-dimethylcyclopentyl)-2′-fluoro-5′-(methyloxy)-1,1′-biphenyl-4-yl)methyl)oxy)phenyl)-2-methylpropanoic acid]
18 | 1000 to 10000 |  | CCCCOc1cc(COc2cccc(CCC(=O)O)c2)ccc1-c1cc(OC)ccc1F [Example 13, 3-(3-(((2-(Butyloxy)-2′-fluoro-5′-(methyloxy)-1,1′-biphenyl-4-yl)methyl)oxy)phenyl)propanoic acid]
19 | 1000 to 10000 |  | CCCC(CC(=O)O)c1cccc(OCc2ccc(-c3cc(OC)ccc3F)c(C(OC)C(C)(C)CC)c2)c1 (single isomer, unassigned) [Example 67.26]
20 | 1000 to 10000 |  | C=C[C@H](CC(=O)O)c1cccc(OCc2ccc(-c3cc(OC)ccc3F)c(C(C)(C)C)c2)c1 (single isomer, unassigned) [Example 15, (3S)-3-(3-(((2-(1,1-Dimethylethyl)-2′-fluoro-5′-(methyloxy)-1,1′-biphenyl-4-yl)methyl)oxy)phenyl)-4-pentenoic acid or (3R)-3-(3-(((2-(1,1-dimethylethyl)-2′-fluoro-5′-(methyloxy)-1,1′-biphenyl-4-yl)methyl)oxy)phenyl)-4-pentenoic acid]
